Experimental data: publication PMC7004140, “In vitro hepatotoxicity of Petasites hybridus extract (Ze 339) depends on the concentration, the cytochrome activity of the cell system, and the species used” (Phytotherapy Research, 2019)

Legend:
Assay type in all cases: in vitro ADME
Details in all cases: petasins 20 μM, 60 min
CYP3A2 (rat) = target: T1, CYP3A2 (rat) (Rattus norvegicus, UniProt P05183); assay: Metabolism by isolated rat CYP3A2
T1 construct: purchased BD Gentest (Switzerland); host or cells: baculovirus expression system
T1 sequence (P05183 1-504): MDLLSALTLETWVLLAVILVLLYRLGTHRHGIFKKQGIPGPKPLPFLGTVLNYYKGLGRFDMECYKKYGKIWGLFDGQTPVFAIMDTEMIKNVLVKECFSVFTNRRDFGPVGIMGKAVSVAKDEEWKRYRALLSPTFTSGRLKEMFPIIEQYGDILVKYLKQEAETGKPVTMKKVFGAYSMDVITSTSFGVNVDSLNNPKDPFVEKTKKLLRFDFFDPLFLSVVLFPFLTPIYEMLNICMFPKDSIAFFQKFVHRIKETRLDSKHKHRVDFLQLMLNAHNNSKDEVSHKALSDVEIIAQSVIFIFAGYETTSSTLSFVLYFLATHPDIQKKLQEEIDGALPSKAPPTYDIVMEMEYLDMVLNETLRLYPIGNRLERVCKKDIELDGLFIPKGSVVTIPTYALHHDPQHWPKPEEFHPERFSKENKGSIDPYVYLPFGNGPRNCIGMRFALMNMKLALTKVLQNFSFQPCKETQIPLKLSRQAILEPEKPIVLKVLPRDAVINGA
Source text: (§1) The metabolism of petasin, isopetasin, and neopetasin was investigated using three different S9 fractions originating from three different species (isolated from rat, dog, and human liver homogenates containing cytochrome P450 isoforms) and isolated cytochromes of two different species (human and rat; rat analogues of the respective human cytochromes were used). For the expression of the different cytochromes, a baculovirus expression system was used according to supplier's manual. The S9 fractions or respectively single P450 cytochromes were used to mimic the liver metabolism by in vitro incubation.
(§2) The assay was carried out in triplicate in 1.5 ml glass vials with a final concentration of 20 μM of petasin, isopetasin, and neopetasin. The incubation was performed in a 37°C warm water bath. S9 fractions were thawed slowly on ice. […]
(§3) A mixture of NADPH regeneration systems A (20‐fold) and B (100‐fold), phosphate buffer, and H2O was added, preincubated at 37°C, and shaken gently for 5 min. […] The supernatant was transferred to high‐performance liquid chromatography vials and analyzed by ultra‐performance liquid chromatography mass spectrometry (UPLC/MS). […]

CYP1A2 (rat) = target: T2, CYP1A2 (rat) (Rattus norvegicus, UniProt P04799); assay: Metabolism by isolated rat CYP1A2
T2 construct: purchased BD Gentest (Switzerland); host or cells: baculovirus expression system
T2 sequence (P04799 1-513): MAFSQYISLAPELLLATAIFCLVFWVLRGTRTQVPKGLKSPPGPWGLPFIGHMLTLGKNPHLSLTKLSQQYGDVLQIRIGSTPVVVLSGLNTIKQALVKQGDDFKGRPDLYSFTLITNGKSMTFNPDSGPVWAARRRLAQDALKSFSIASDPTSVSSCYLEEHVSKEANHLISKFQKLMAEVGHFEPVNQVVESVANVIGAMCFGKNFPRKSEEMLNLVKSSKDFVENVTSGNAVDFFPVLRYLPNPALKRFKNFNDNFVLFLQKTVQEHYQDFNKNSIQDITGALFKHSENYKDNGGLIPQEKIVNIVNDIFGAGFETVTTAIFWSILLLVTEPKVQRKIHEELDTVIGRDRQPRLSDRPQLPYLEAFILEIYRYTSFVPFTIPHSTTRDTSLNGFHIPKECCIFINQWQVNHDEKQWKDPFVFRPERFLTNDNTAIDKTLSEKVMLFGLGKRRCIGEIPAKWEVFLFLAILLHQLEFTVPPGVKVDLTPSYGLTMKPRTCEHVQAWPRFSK
Source text: as §1, §2, §3

CYP2D6 (human) = target: T3, CYP2D6 (human) (Homo sapiens, UniProt P10635); assay: Metabolism by isolated human CYP2D6
T3 construct: purchased BD Gentest (Switzerland); host or cells: baculovirus expression system
Source text: as §1, §2, §3

CYP2C9 (human) = target: T4, CYP2C9 (human) (Homo sapiens, UniProt P11712); assay: Metabolism by isolated human CYP2C9
T4 construct: purchased BD Gentest (Switzerland); host or cells: baculovirus expression system
Source text: as §1, §2, §3

T4 sequence (P11712 whole entry): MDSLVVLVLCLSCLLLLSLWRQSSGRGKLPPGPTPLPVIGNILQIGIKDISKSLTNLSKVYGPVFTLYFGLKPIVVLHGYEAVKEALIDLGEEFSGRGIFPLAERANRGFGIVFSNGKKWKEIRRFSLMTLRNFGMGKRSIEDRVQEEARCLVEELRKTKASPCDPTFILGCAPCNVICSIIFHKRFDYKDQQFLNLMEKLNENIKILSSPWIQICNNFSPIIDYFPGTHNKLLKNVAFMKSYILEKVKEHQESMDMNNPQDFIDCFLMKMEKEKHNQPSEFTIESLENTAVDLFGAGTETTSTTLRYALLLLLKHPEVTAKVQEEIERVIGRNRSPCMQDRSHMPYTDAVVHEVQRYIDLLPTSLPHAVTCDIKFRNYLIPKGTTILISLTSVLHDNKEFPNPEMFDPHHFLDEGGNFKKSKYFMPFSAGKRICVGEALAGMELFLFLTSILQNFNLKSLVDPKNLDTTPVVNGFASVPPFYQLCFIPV
T3 sequence (P10635 whole entry): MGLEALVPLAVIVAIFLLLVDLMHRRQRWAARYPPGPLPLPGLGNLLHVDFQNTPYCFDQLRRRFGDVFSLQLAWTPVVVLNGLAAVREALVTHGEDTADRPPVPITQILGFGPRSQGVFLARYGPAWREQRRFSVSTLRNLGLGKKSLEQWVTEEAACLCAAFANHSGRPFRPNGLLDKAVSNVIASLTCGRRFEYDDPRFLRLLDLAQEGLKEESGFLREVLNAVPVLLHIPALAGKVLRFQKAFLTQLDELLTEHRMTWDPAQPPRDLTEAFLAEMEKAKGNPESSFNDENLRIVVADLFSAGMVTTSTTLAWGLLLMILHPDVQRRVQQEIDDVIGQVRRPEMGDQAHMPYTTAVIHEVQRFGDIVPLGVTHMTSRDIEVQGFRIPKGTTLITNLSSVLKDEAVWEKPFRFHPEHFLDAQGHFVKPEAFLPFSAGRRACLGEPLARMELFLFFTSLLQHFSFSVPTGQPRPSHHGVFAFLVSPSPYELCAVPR

**Q.** Which “extent of metabolism by CYP3A2 (rat)” value (CYP3A2 (rat)) does the source give for `C/C=C(/C)C(=O)O[C@@H]1CCC2=CC(=O)C(=C(C)C)C[C@]2(C)[C@H]1C` [isopetasin] here?
**A.** 73%

**Q.** And the “extent of metabolism by CYP1A2 (rat)” value (CYP1A2 (rat))?
**A.** < 1%

**Q.** For `C=C(C)[C@H]1C[C@@]2(C)C(=CC1=O)CC[C@@H](OC(=O)/C(C)=C\C)[C@@H]2C` [neopetasin], which “extent of metabolism by CYP3A2 (rat)” value (CYP3A2 (rat)) is on record?
**A.** 46%

**Q.** Which “extent of metabolism by CYP1A2 (rat)” value (CYP1A2 (rat)) does the source give for `C=C(C)[C@@H]1C[C@@]2(C)C(=CC1=O)CC[C@@H](OC(=O)/C(C)=C\C)[C@@H]2C` [petasin] here?
**A.** 43%

**Q.** What about the “extent of metabolism by CYP2D6 (human)” value (CYP2D6 (human)) of the same compound?
**A.** 80.2%

**Q.** And the “extent of metabolism by CYP2C9 (human)” value (CYP2C9 (human))?
**A.** 51%
